Earlier results as cited in patent publication US20030187074A1, “Oral compositions for treatment of diabetes” (priority 2002, published 2003).

Settings: Physician's Desk Reference, 2001, page 2980

## CN(CCOc1ccc(CC2SC(=O)NC2=O)cc1)c1ccccn1 (stereo not shown) [rosiglitazone]
  half-life of elimination from the human body: 3 to 4 h
